Laboratory results taken from US3937695A, “P-Glu-Trp-Ser-Tyr-D-Lys-Leu-Arg-Pro-Gly-NH2 and intermediates” (American Home Products Corporation, priority 1974, dated 1976).
Where a SMILES comes first, the peptide text is derived from it. [ ]: non-standard residue; d: D form. pGlu = O=C1CC[C@@H](C(=O)O)N1

Tested on: ovulation in female rats
Assay: Anti-ovulatory test in proestrous female rats
Assay type: in vivo, Sprague-Dawley rats
Procedure: In vivo tests were conducted with female rats (225 to 250 grams body weight). […] The test was conducted with mature Sprague-Dawley rats, unanesthetized, proestrous rats. On the afternoon of proestrous, each rat in the test group received six subcutaneous injections of the acetate salt of formula I in corn oil, each injection being given a half hour following the previous injection. The rats are sacrificed the next morning and the number of animals ovulating and the number of ova shed are recorded following the procedure described by E. S. France, Neuroendocrinology 6, pp 77-89 (1970). The absence of or a significant decrease in the number of ova is the criterion for an anti-ovulation effect.

SMILES: CC(C)C[C@H](NC(=O)[C@@H](CCCCN)NC(=O)[C@H](Cc1ccc(O)cc1)NC(=O)[C@H](CO)NC(=O)[C@H](Cc1c[nH]c2ccccc12)NC(=O)[C@@H]1CCC(=O)N1)C(=O)N[C@@H](CCCNC(=N)N)C(=O)N1CCC[C@H]1C(=O)NCC(N)=O [Example 3, L-Pyroglutamyl-L-tryptophyl-L-seryl-L-tyrosyl-D-lysyl-L-leucyl-L-arginyl-L- prolyl-glycinamide] ([pGlu]WSY[dK]LRPG-NH2)
- Inhibition of ovulation (1 mg per injection, six subcutaneous injections in corn oil, half an hour apart, on the afternoon of proestrous, rats sacrificed next morning): complete inhibition of ovulation
- Ovulation inhibition (mature unanesthetized proestrous female Sprague-Dawley rats (225 to 250 g), dose of about 24 mg/kg, subcutaneous in corn oil): all of the rats tested
